# Experimental data reported in PubChem BioAssay AID1918958 (Molecular Pharmacology Branch, DTP, NCI, 2023).
# Values joined by “and” are separate entries in the source; they are usually repeats but may differ in a detail not shown here. Equal entries are not always repeated.
# Test system: NCI-H196 complex spheroid viability
# Assay: Anticancer human tumor NCI-H196 cell line growth inhibition [LSD1];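 note: spheroids exposed to agents for 7 days before readout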;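 for viability, T/C: 100% = DMSO vehicle control viability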
# Details: for viability, T/C: stronger effect = lower value
# Summary of the method: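 Multicellular complex spheroids of tumor cells with human endothelial cells (HUVEC) and mesenchymal stem cells; the LSD1 inhibitor iadademstat was combined with standard-of-care or investigational agents. Top concentration at or near clinical Cmax, half-log dilutions; final DMSO ≤0.25%.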
# [1] = curve of first compound, second compound 0.1 µM
# [2] = curve of first compound, second compound 0.316 µM
# [3] = curve of first compound, second compound 1 µM
# [4] = curve of first compound, second compound 3.16 µM
# [5] = curve of first compound, second compound 10 µM
# [6] = second compound 0.1 µM, first compound 0.00949 µM
# [7] = second compound 0.1 µM, first compound 0.03 µM
# [8] = second compound 0.1 µM, first compound 0.0949 µM
# [9] = second compound 0.1 µM, first compound 0.3 µM
# [10] = second compound 0.1 µM, first compound 0.949 µM
# [11] = second compound 0.1 µM, first compound 3 µM
# [12] = second compound 0.316 µM, first compound 0.00949 µM
# [13] = second compound 0.316 µM, first compound 0.03 µM
# [14] = second compound 0.316 µM, first compound 0.0949 µM
# [15] = second compound 0.316 µM, first compound 0.3 µM
# [16] = second compound 0.316 µM, first compound 0.949 µM
# [17] = second compound 0.316 µM, first compound 3 µM
# [18] = second compound 1 µM, first compound 0.00949 µM
# [19] = second compound 1 µM, first compound 0.03 µM
# [20] = second compound 1 µM, first compound 0.0949 µM
# [21] = second compound 1 µM, first compound 0.3 µM
# [22] = second compound 1 µM, first compound 0.949 µM
# [23] = second compound 1 µM, first compound 3 µM
# [24] = second compound 3.16 µM, first compound 0.00949 µM
# [25] = second compound 3.16 µM, first compound 0.03 µM
# [26] = second compound 3.16 µM, first compound 0.0949 µM
# [27] = second compound 3.16 µM, first compound 0.3 µM
# [28] = second compound 3.16 µM, first compound 0.949 µM
# [29] = second compound 3.16 µM, first compound 3 µM
# [30] = second compound 10 µM, first compound 0.00949 µM
# [31] = second compound 10 µM, first compound 0.03 µM
# [32] = second compound 10 µM, first compound 0.0949 µM
# [33] = second compound 10 µM, first compound 0.3 µM
# [34] = second compound 10 µM, first compound 0.949 µM
# [35] = second compound 10 µM, first compound 3 µM
compound,measurement,setting,value
CCN(c1cc(-c2ccc(CN3CCOCC3)cc2)cc(C(=O)NCc2c(C)cc(C)[nH]c2=O)c1C)C1CCOCC1 + NC1CC1c1ccc(-c2cccc(O)c2)cc1,IC50,[1],> 3 µM
same,IC50,[2],> 3 µM
same,IC50,[3],> 3 µM
same,IC50,[4],> 3 µM
same,IC50,[5],> 3 µM
same,"viability, T/C",[6],93.6%
same,"viability, T/C",[7],91.8%
same,"viability, T/C",[8],98%
same,"viability, T/C",[9],108%
same,"viability, T/C",[10],107%
same,"viability, T/C",[11],118%
same,"viability, T/C",[12],94.5%
same,"viability, T/C",[13],97.8%
same,"viability, T/C",[14],113%
same,"viability, T/C",[15],104%
same,"viability, T/C",[16],110%
same,"viability, T/C",[17],110%
same,"viability, T/C",[18],97.4%
same,"viability, T/C",[19],102%
same,"viability, T/C",[20],102%
same,"viability, T/C",[21],106%
same,"viability, T/C",[22],116%
same,"viability, T/C",[23],112%
same,"viability, T/C",[24],98.4%
same,"viability, T/C",[25],99%
same,"viability, T/C",[26],101%
same,"viability, T/C",[27],102%
same,"viability, T/C",[28],98.9%
same,"viability, T/C",[29],103%
same,"viability, T/C",[30],98.6%
same,"viability, T/C",[31],109%
same,"viability, T/C",[32],104%
same,"viability, T/C",[33],104%
same,"viability, T/C",[34],105%
same,"viability, T/C",[35],92.9%
CC1COCCN1c1cc(C2(S(C)(=N)=O)CC2)nc(-c2ccnc3[nH]ccc23)n1 (centres undefined),"viability, T/C",compound 0.0316 µM,96.2% and 97.2%
same,"viability, T/C",compound 0.1 µM,100% and 94.8%
same,"viability, T/C",compound 0.316 µM,91.8% and 98.8%
same,"viability, T/C",compound 1 µM,84.6% and 84.2%
same,"viability, T/C",compound 3.16 µM,77.8% and 76.2%
same,"viability, T/C",compound 10 µM,72.7% and 74.6%
same,IC50,curve of compound,> 10 µM
Nc1ccn(C2OC(CO)C(O)C2(F)F)c(=O)n1 (centres undefined) + NC1CCC(NC2CC2c2ccccc2)CC1,IC50,[1],> 0.3 µM
same,IC50,[2],> 0.3 µM
same,IC50,[3],> 0.3 µM
same,IC50,[4],> 0.3 µM
same,IC50,[5],> 0.3 µM
same,"viability, T/C","second compound 0.1 µM, first compound 0.000949 µM",104%
same,"viability, T/C","second compound 0.1 µM, first compound 0.003 µM",98.6%
same,"viability, T/C",[6],85.9%
same,"viability, T/C",[7],65.1%
same,"viability, T/C",[8],61.8%
same,"viability, T/C",[9],68.1%
same,"viability, T/C","second compound 0.316 µM, first compound 0.000949 µM",96.8%
same,"viability, T/C","second compound 0.316 µM, first compound 0.003 µM",99.3%
same,"viability, T/C",[12],93.7%
same,"viability, T/C",[13],69.2%
same,"viability, T/C",[14],59.2%
same,"viability, T/C",[15],70.3%
same,"viability, T/C","second compound 1 µM, first compound 0.000949 µM",97.3%
same,"viability, T/C","second compound 1 µM, first compound 0.003 µM",96.7%
same,"viability, T/C",[18],85%
same,"viability, T/C",[19],63.9%
same,"viability, T/C",[20],64.2%
same,"viability, T/C",[21],63.5%
same,"viability, T/C","second compound 3.16 µM, first compound 0.000949 µM",99.7%
same,"viability, T/C","second compound 3.16 µM, first compound 0.003 µM",103%
same,"viability, T/C",[24],88.2%
same,"viability, T/C",[25],63.8%
same,"viability, T/C",[26],63.8%
same,"viability, T/C",[27],68.3%
same,"viability, T/C","second compound 10 µM, first compound 0.000949 µM",94.2%
same,"viability, T/C","second compound 10 µM, first compound 0.003 µM",108%
same,"viability, T/C",[30],86.5%
same,"viability, T/C",[31],75.6%
same,"viability, T/C",[32],65%
same,"viability, T/C",[33],67.4%
CCN(c1cc(-c2ccc(CN3CCOCC3)cc2)cc(C(=O)NCc2c(C)cc(C)[nH]c2=O)c1C)C1CCOCC1 + NC1CCC(NC2CC2c2ccccc2)CC1,IC50,[1],> 3 µM
same,IC50,[2],> 3 µM
same,IC50,[3],> 3 µM
same,IC50,[4],> 3 µM
same,IC50,[5],> 3 µM
same,"viability, T/C",[6],100%
same,"viability, T/C",[7],95.6%
same,"viability, T/C",[8],93.1%
same,"viability, T/C",[9],103%
same,"viability, T/C",[10],96.4%
same,"viability, T/C",[11],101%
same,"viability, T/C",[12],99.5%
same,"viability, T/C",[13],93.8%
same,"viability, T/C",[14],101%
same,"viability, T/C",[15],100%
same,"viability, T/C",[16],104%
same,"viability, T/C",[17],110%
same,"viability, T/C",[18],92.5%
same,"viability, T/C",[19],93%
same,"viability, T/C",[20],98.7%
same,"viability, T/C",[21],95.2%
same,"viability, T/C",[22],99.6%
same,"viability, T/C",[23],103%
same,"viability, T/C",[24],87.8%
same,"viability, T/C",[25],91.4%
same,"viability, T/C",[26],95.3%
same,"viability, T/C",[27],95.6%
same,"viability, T/C",[28],91.6%
same,"viability, T/C",[29],99.9%
same,"viability, T/C",[30],104%
same,"viability, T/C",[31],93.3%
same,"viability, T/C",[32],94.6%
same,"viability, T/C",[33],105%
same,"viability, T/C",[34],86.7%
same,"viability, T/C",[35],101%
CC1(C)CCC(CN2CCN(c3ccc(C(=O)NS(=O)(=O)c4ccc(NCC5CCOCC5)c([N+](=O)[O-])c4)c(Oc4cnc5[nH]ccc5c4)c3)CC2)=C(c2ccc(Cl)cc2)C1,"viability, T/C",compound 0.0316 µM,99.4% and 101%
same,"viability, T/C",compound 0.1 µM,104% and 99.2%
same,"viability, T/C",compound 0.316 µM,94.9% and 98.7%
same,"viability, T/C",compound 1 µM,103% and 93.7%
same,"viability, T/C",compound 3.16 µM,86.4% and 94.3%
same,"viability, T/C",compound 10 µM,13% and 20.1%
same,IC50,curve of compound,5.62 µM and 6.29 µM
NC1CCC(NC2CC2c2ccccc2)CC1 (centres undefined),"viability, T/C",compound 0.316 µM,93.8% and 93%
same,"viability, T/C",compound 1 µM,96.9% [middle of 25 runs]
same,"viability, T/C",compound 3.16 µM,97.9% [middle of 25 runs]
same,"viability, T/C",compound 10 µM,97.5% [middle of 23 runs]
same,IC50,"compound alone, run of 02/15/2022",> 10 µM
COc1cc(Nc2ncc3c(n2)-c2ccc(Cl)cc2C(c2c(F)cccc2OC)=NC3)ccc1C(=O)O + NC1CCC(NC2CC2c2ccccc2)CC1,IC50,[1],> 1 µM
same,IC50,[2],> 1 µM
same,IC50,[3],> 1 µM
same,IC50,[4],> 1 µM
same,IC50,[5],> 1 µM
same,"viability, T/C","second compound 0.1 µM, first compound 0.00316 µM",94.8%
same,"viability, T/C","second compound 0.1 µM, first compound 0.01 µM",107%
same,"viability, T/C","second compound 0.1 µM, first compound 0.0316 µM",122%
same,"viability, T/C","second compound 0.1 µM, first compound 0.1 µM",116%
same,"viability, T/C","second compound 0.1 µM, first compound 0.316 µM",134%
same,"viability, T/C","second compound 0.1 µM, first compound 1 µM",121%
same,"viability, T/C","second compound 0.316 µM, first compound 0.00316 µM",99.2%
same,"viability, T/C","second compound 0.316 µM, first compound 0.01 µM",103%
same,"viability, T/C","second compound 0.316 µM, first compound 0.0316 µM",112%
same,"viability, T/C","second compound 0.316 µM, first compound 0.1 µM",131%
same,"viability, T/C","second compound 0.316 µM, first compound 0.316 µM",123%
same,"viability, T/C","second compound 0.316 µM, first compound 1 µM",138%
same,"viability, T/C","second compound 1 µM, first compound 0.00316 µM",94.4%
same,"viability, T/C","second compound 1 µM, first compound 0.01 µM",108%
same,"viability, T/C","second compound 1 µM, first compound 0.0316 µM",102%
same,"viability, T/C","second compound 1 µM, first compound 0.1 µM",113%
same,"viability, T/C","second compound 1 µM, first compound 0.316 µM",126%
same,"viability, T/C","second compound 1 µM, first compound 1 µM",119%
same,"viability, T/C","second compound 3.16 µM, first compound 0.00316 µM",95.7%
same,"viability, T/C","second compound 3.16 µM, first compound 0.01 µM",105%
same,"viability, T/C","second compound 3.16 µM, first compound 0.0316 µM",110%
same,"viability, T/C","second compound 3.16 µM, first compound 0.1 µM",103%
same,"viability, T/C","second compound 3.16 µM, first compound 0.316 µM",128%
same,"viability, T/C","second compound 3.16 µM, first compound 1 µM",126%
same,"viability, T/C","second compound 10 µM, first compound 0.00316 µM",92.2%
same,"viability, T/C","second compound 10 µM, first compound 0.01 µM",107%
same,"viability, T/C","second compound 10 µM, first compound 0.0316 µM",97.6%
same,"viability, T/C","second compound 10 µM, first compound 0.1 µM",116%
same,"viability, T/C","second compound 10 µM, first compound 0.316 µM",125%
same,"viability, T/C","second compound 10 µM, first compound 1 µM",113%
